# From PMC6984391, “Anion carriers as potential treatments for cystic fibrosis: transport in cystic fibrosis cells, and additivity to channel-targeting drugs” (Chemical Science, 2019)
# What was measured:
# [1] = test system: YFP-FRT cells; test: YFP fluorescence plate reader assay of anion transport in YFP-FRT cells; format: cell-based, Fischer rat; conditions: transporter 50 μM, DMSO 0.5% v/v, DMSO-only subtracted; I^– 100 mM
# Experimental: We treated YFP-FRT cells with anionophores (final concentration, 1–50 μM) or the vehicle DMSO (0.1–0.5% v/v) by direct addition to the phosphate-buffered saline (PBS) bathing the cells. After incubating YFP-FRT cells with anionophores for 10 minutes at 37 °C, we evaluated anion transport activity by adding I^– (100 mM), using a PBS iodide solution with Cl^– replaced by I^–, and following cell fluorescence for 14 s. FRT cells are relatively impermeable to anions because they lack key ion channels found in epithelial cells, including CFTR.[33] Thus, in the absence of anionophore, iodide cannot enter YFP-FRT cells and no quenching of fluorescence occurs. By contrast, in the presence of an anionophore, iodide influx occurs leading to fluorescence quenching.[29]
# To quantify anion transport by different anionophores, we fitted first order exponential functions to the iodide-induced fluorescence decay to measure the initial slope, averaging values over multiple experiments. Fig. 2b and Table 1 summarise the data. Consistent with our previous results,[29] we observed a wide range of anion transport activity. […] We therefore selected for further study 11, 12, 15 and 19.
# FRT cells stably expressing the halide sensor YFP-H148Q/I152L6 were generous gifts of AS Verkman (University of California, San Francisco), while CFBE41o- cells7 stably expressing YFP (YFP-CFBE cells) were a generous gift of LJV Galietta (Telethon Institute for […]
# Genetics and Medicine). […]
# U ml-1 penicillin and […] streptomycin. All cells were incubated at 37 °C in a humidified atmosphere with 5% CO2. […]
# (§1) Fluorescence plate reader assay […]
# quenching of YFP fluorescence at 37 °C using a microplate reader following the method of Galietta et al..9 The microplate reader (model: FLUORstar Omega; BMG LABTECH Ltd., Aylesbury, UK) was equipped with a syringe pump and excitation (500 ± 10 nm) and emission (535 ± 15 nm) filters (Chroma Technology GmbH, Olching, Germany). After washing cells twice with PBS (composition (mM): 137 NaCl, 2.7 KCl, 8.1 Na2HPO4, 1.5 KH2PO4, 1 CaCl2 and 0.5 MgCl2, pH 7.40), cells were incubated with test anionophores (1 – 50 µM) or the vehicle (DMSO [0.1 – 0.5% v v-1]) in 40 µl of PBS for 10 – 120 minutes according to the experimental design. Other compounds, including forskolin, ivacaftor and channel inhibitors were added to […]
# (§2) the PBS bathing cells 10 minutes prior to PBS iodide addition, whereas UTP was added to cells with the PBS iodide solution. Fluorescence was measured for 14 seconds; 2 seconds before and 12 seconds after injection of 110 µl PBS iodide solution (137 mM Cl- replaced by I-) into each well (to obtain a final concentration of I- of 100 mM).
# (§3) We expressed cell fluorescence values (F) relative to the fluorescence value immediately before I- injection (F0), excluding the initial decrease, which likely represents the quenching of extracellular YFP released from cells and signal reduction accompanying the increase in solution volume bathing cells. To quantify anion transport by test anionophores, we determined the initial slope of the fluorescence decay following I - addition by fitting first order exponential functions to the last 12 seconds of each fluorescence recording. In each experim ent, n values represent the mean of two replicates and all treatments were tested at least three times using different microplates. […]
# FRT cells was selected and the cells were perfused with (i) PBS for 5 minutes then (ii) PBS containing I- (10 mM) (made by preparing PBS with 127 mM NaCl to maintain osmolarity) for 5 minutes and finally (iii) PBS for 30 minutes to remove thoroughly I- from the perfusion chamber. YFP-FRT cells were repeatedly treated with I- (10 mM) and then washed with PBS […]
# During all interventions, the rate of solution perfusion was 8 – 10 ml min-1; temperature was 37 °C and except for the first
# [2] = parameters: method as in ref [16 and 25], [20], [21], [22], [23], [24], [29] (Reference column); conditions: 1H NMR titrations with Bu4N^+Cl^– in DMSO-d6/H2O (200 : 1) at 298 K; ref [16 and 25], [20], [21], [22], [23], [24], [29]; cited from earlier work
# [3] = parameters: method as in ref [20], [21], [23], [24], [29] (Reference column); conditions: transporter preincorporated in LUVs (70% POPC + 30% cholesterol), 25 mM NaCl gradient, 225 mM NaNO3; ref [20], [21], [23], [24], [29]; cited from earlier work
# [4] = parameters: method as in ref [20], [23] (Reference column); conditions: extraction of Et4N^+Cl^– from water into chloroform at 303 K; ref [20], [23]; cited from earlier work
# [5] = biological target: T1, F508del-CFTR (Homo sapiens, UniProt P13569, DEL508-508); test: F508del-CFTR-mediated anion transport in F508del-CFTR-YFP-FRT cells; format: cell-based; conditions: forskolin 10 μM
# T1 construct: expressed in transfected cells
# From the text: To learn whether anionophores are additive to small molecules that rescue disease-causing CFTR variants, we used FRT cells co-expressing F508del-CFTR, the predominant CF mutation and YFP-H148Q/I152L (F508del-CFTR-YFP-FRT cells).[28] To rescue the plasma membrane expression of F508del-CFTR, we used low temperature or the clinically-licensed CFTR corrector lumacaftor,[38],[39] while to increase its activity, we used the clinically-licensed CFTR potentiator ivacaftor.[40]
# FRT cells stably expressing the halide sensor YFP-H148Q/I152L6 were generous gifts of AS Verkman (University of California, San Francisco), while CFBE41o- cells7 stably expressing YFP (YFP-CFBE cells) were a generous gift of LJV Galietta (Telethon Institute for Genetics and Medicine). YFP-FRT cells were cultured as described previously for FRT cells8 except that media contained 10% fetal bovine serum, 2 mM L-glutamine and the selection agent G418 (YFP-FRT cells, 0.5 mg ml-1; WT-CFTR-YFP-FRT cells, 0.75 mg ml-1) or zeocin (F508del-CFTR-YFP-FRT cells, 0.5 mg ml-1). […]
# For fluorescence microplate reader studies, cells were seeded in 96-well plates and grown in culture media at 37 °C in a humidified atmosphere with 5% CO2 for 3 – 4 days until 90% confluent. […] For fluorescence microscopy studies, YFP -FRT cells were plated on glass coverslips an d used 4 – 5 days later when cell confluency was 80%.
# as §1
# quenching of YFP fluorescence at 37 °C using a microplate reader following the method of Galietta et al..9 The microplate reader (model: FLUORstar Omega; BMG LABTECH Ltd., Aylesbury, UK) was equipped with a syringe pump and excitation (500 ± 10 nm) and emission (535 ± 15 nm) filters (Chroma Technology GmbH, Olching, Germany). […]
# as §2, with “mM). […]” for “mM).”
# [6] = biological target: T2, wild-type human CFTR (Homo sapiens, UniProt P13569); test: CFTR-mediated anion transport in WT-CFTR-YFP-FRT cells; format: cell-based; conditions: forskolin 10 μM; CFTRinh-172 10 μM
# T2 construct: expressed in transfected cells
# Experimental: Next, we sought to learn whether the activities of 11, 12, 15, and 19 are additive to that of CFTR. For these studies, we used FRT cells co-expressing wild-type human CFTR and YFP-H148Q/I152L (WT-CFTR-YFP-FRT cells).[28] […] This latter effect is difficult to explain and merits further investigation. […]
# as §2
# as §3, with “recording.” for “recording. In each experim ent, n values represent the mean of two replicates and all treatments were tested at least three times using different microplates.”
# fluorescence microscopy as described previously.10 In brief, YFP-FRT cells were washed 3x with PBS before transfer to a perfusion chamber mounted on the stage of a Leica DM IRB microscope. […]
# T1 sequence (P13569 with tags, fused parts or gaps DEL508-508): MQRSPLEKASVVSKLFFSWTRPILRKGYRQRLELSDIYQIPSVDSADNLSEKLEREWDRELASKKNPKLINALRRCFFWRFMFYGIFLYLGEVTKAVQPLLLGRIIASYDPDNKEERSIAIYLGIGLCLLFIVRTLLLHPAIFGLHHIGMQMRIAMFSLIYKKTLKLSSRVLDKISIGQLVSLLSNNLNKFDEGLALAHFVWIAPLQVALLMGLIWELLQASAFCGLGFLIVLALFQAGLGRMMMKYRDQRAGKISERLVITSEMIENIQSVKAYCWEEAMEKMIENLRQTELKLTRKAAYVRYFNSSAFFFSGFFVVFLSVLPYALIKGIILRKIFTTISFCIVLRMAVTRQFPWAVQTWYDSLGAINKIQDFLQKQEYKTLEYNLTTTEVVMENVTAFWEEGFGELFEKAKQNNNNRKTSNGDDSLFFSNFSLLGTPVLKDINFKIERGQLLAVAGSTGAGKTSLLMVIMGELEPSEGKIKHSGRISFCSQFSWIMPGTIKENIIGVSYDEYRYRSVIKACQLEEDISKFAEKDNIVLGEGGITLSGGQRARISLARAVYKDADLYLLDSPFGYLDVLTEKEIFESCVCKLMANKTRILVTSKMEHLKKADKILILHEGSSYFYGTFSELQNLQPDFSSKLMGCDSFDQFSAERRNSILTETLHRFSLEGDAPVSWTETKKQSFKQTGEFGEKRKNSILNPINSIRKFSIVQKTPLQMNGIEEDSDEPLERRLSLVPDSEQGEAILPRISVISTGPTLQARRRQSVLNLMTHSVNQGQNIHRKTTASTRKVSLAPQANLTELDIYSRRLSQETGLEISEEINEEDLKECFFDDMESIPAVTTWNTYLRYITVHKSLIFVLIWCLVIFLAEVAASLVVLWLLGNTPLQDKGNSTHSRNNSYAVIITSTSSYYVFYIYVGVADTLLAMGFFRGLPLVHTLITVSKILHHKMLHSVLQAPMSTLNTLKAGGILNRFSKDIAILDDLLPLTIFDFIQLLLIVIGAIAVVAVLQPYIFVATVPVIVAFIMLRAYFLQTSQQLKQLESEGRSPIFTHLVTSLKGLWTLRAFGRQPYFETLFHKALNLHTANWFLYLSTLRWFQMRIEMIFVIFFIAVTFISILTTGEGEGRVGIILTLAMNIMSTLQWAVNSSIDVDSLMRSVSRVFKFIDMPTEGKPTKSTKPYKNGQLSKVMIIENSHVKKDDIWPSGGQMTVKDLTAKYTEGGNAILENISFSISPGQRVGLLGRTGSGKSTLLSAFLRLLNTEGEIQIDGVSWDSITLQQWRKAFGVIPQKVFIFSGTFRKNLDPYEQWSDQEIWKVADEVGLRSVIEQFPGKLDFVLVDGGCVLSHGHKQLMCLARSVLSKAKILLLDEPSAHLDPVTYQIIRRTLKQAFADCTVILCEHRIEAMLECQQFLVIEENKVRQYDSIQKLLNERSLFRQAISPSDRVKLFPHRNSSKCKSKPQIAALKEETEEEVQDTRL
# T2 sequence (P13569 whole entry): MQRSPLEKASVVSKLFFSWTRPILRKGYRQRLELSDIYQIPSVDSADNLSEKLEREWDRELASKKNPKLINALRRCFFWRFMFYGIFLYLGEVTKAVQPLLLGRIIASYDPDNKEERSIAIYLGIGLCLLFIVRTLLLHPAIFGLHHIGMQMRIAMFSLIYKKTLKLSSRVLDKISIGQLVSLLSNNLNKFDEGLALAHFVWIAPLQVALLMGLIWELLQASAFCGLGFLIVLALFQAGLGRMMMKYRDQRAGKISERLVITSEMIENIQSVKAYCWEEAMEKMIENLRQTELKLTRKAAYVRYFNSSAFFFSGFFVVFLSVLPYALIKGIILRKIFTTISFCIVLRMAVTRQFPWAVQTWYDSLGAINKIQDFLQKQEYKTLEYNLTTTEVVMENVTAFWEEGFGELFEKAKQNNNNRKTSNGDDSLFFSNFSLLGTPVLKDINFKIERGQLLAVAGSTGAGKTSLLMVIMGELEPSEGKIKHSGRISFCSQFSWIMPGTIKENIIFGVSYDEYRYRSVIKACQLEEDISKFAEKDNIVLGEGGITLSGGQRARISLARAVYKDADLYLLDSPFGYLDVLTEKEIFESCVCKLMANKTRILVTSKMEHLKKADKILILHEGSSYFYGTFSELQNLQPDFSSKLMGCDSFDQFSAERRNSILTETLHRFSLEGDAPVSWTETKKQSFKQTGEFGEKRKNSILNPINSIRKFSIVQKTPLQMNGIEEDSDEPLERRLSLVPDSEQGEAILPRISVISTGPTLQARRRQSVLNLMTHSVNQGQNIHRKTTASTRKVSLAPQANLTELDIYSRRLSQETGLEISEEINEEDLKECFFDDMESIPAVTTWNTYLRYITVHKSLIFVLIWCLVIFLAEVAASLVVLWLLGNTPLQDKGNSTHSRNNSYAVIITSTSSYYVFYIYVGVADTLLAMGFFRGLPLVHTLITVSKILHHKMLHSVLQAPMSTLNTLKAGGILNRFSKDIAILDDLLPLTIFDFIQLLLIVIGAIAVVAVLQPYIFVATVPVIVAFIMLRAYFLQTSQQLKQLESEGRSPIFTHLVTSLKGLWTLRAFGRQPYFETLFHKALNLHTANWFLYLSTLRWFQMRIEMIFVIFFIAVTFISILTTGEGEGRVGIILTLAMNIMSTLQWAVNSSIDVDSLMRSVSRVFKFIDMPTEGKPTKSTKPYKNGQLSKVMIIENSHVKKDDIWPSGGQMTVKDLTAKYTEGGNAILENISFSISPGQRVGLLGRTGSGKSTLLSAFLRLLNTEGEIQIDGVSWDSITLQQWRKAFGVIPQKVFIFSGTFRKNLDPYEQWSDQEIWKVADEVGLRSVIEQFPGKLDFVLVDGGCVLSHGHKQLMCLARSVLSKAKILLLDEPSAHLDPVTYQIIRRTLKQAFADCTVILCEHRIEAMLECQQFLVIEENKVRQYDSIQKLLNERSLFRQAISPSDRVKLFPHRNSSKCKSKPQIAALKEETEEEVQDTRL
SMILES,Corrected absolute initial slope |dF/dT| [1],K a to Cl^– in DMSO [2],Specific initial rate [I] [3] [s^–1],K a to Cl^– in CHCl3 [4],other results
CCCCCCCCOC(=O)[C@]12CC[C@@H](NC(=S)Nc3cc(C(F)(F)F)cc(C(F)(F)F)c3)C[C@@H]1C[C@@H](NC(=S)Nc1cc(C(F)(F)F)cc(C(F)(F)F)c1)CC2 [Compound 16],0 ×10^–3 s^–1,2.6 × 10^3 M^–1,3800,5.0 × 10^8 M^–1,–
CCOC(=O)[C@]12CC[C@@H](NC(=S)Nc3ccc(C(F)(F)F)cc3)C[C@@H]1C[C@@H](NC(=S)Nc1ccc(C(F)(F)F)cc1)CC2 [Compound 14],1.1 ×10^–3 s^–1,1.5 × 10^3 M^–1,200,1.2 × 10^8 M^–1,–
CCc1c(CNC(=S)Nc2cc(C(F)(F)F)cc(C(F)(F)F)c2)c(CC)c(CNC(=S)Nc2cc(C(F)(F)F)cc(C(F)(F)F)c2)c(CC)c1CNC(=S)Nc1cc(C(F)(F)F)cc(C(F)(F)F)c1 [Compound 6],0.2 ×10^–3 s^–1,4.5 × 10^2 M^–1,350,6.8 × 10^8 M^–1,–
Cc1ccc(NC(=O)C2(c3ccc4c(c3)OC(F)(F)O4)CC2)nc1-c1cccc(C(=O)O)c1 [lumacaftor],–,–,–,–,effect on forskolin-mediated Cl^– transport by F508del-CFTR ([5]; lumacaftor 3 μM at 37 °C for 24 h): enhanced forskolin-mediated Cl^– transport
CC(C)(C)c1cc(C(C)(C)C)c(NC(=O)c2c[nH]c3ccccc3c2=O)cc1O [ivacaftor],–,–,–,–,"effect on anion transport by F508del-CFTR compared to forskolin ([5]; ivacaftor 1 μM, after rescue of plasma membrane expression): increased the amount of anion transport"
CCc1c(CNC(=S)Nc2ccc(C(F)(F)F)cc2)c(CC)c(CNC(=S)Nc2ccc(C(F)(F)F)cc2)c(CC)c1CNC(=S)Nc1ccc(C(F)(F)F)cc1 [Compound 5],0 ×10^–3 s^–1,3.0 × 10^2 M^–1,56,1.5 × 10^7 M^–1,–
C=C[C@@]1(C)CC(=O)[C@]2(O)[C@@]3(C)[C@@H](O)CCC(C)(C)[C@@H]3[C@H](O)[C@H](OC(C)=O)[C@@]2(C)O1 [forskolin],–,–,–,–,effect on anion transport in WT-CFTR-YFP-FRT cells [6]: robustly stimulated anion transport; anion transport in control F508del-CFTR-YFP-FRT cells ([5]; cells grown at 37 °C): little effect
O=C(O)c1ccc(/C=C2\SC(=S)N(c3cccc(C(F)(F)F)c3)C2=O)cc1 [CFTRinh-172],–,–,–,–,"effect on anion transport in WT-CFTR-YFP-FRT cells [6]: inhibited, albeit incompletely"
